Numbered stars: 1 amine (or outer) side, 2 acyl side, 3 side chain; on linkers, the order of the positions; unused ones are H or OH. Bridge positions count the residues as written; N and C are the ends. Square brackets hold non-standard residues; d marks the D form. Peptide text beside a SMILES is read from it. I, II: the chains in the order shown. Actinocin(9to1) = Cc1c2oc3c(C)ccc(C(=O)[*:1])c3nc-2c(C(=O)[*:2])c(N)c1=O; NMeV = CN[C@H](C(=O)O)C(C)C; Sar = CNCC(=O)O
Columns and labels:
Type in all cases: cell-based
[1] = tested on: polymorphonuclear leucocytes; assay: DNA damage induced by actinomycin D and protection by redistilled cow's urine distillate; conditions: Table 2; Actinomycin D alone (positive control)
Procedure: (§1) To 5 ml of whole blood 15 ml of solution A is added, mixed well and kept between 2 and 4° C. for 30 minutes. The mixture was centrifuged at 800×g for 10 minutes. The supernatant is discarded, the pellet was washed with balanced salt solution and washing is discarded after centrifugation at 800×g for 10 minutes. This step was done twice. The pellet comprises of peripheral polymorphonuclear leukocytes (PMNs) which are suspended in predetermined amount of solution B.
(§2) The volume in each tube was made up to 2 ml by adding BSS solution. The mixture is incubated at 37° C. for 1 hr in 5% CO2 incubator with 95% humidity. After incubation, 5 ml of ice cold 0.9% NaCl was added in each tube, centrifuged at 800 g for 10 minutes and the supernatant is discarded. To the pellet in each tube 1.5 ml of solution B was added. The tubes (control and three experimental) are mixed thoroughly and the mixture was equally distributed in the volume of 0.2 ml in 3 tubes designated as B, P and T, then 200 μl of solution C was added. The three tubes B, P & T, were kept in cold (0° C.) for 10 minutes after mixing well in order to lyse the cells. To tube T 400 μl of solution E was added. Thereafter, 200 μl of solution D was added to all the tubes B, P and T. The tubes were kept at 0° C. for 30 minutes. Thereafter, contents of the B tube was sonicated for 30 second three times. B, P and T were further incubated at 20° C. for 1 hr. To B and P tubes 400 μl of solution E was added and the tubes were incubated at 0° C. for 10 minutes. 1.5 ml of solution F are added to all the tubes, homogenized on a vortex shaker and subjected to fluorescence spectrophotometric analyses within 15 minutes with 520 nm excitation and at 590 nm emission. The percentage of double stranded DNA remaining was determined using the following formula. [Krishnamurthi et al. (2003) & Bimboim & Jevcak (1981)].
(§3) [formula] • Where P, B and T are the fluorescence emissions at 590 nm.
(§4) One ml of PMNs suspended in solution B containing around 1×10^6 cells were taken in four tubes A, B, C and D. To tube B, 60 μl of redistilled cow urine distillate (RCUD) was added and incubated at 37° C. for 10 minutes.
(§5) To tube A only 60 μl of RCUD was added; the volume was made up with BSS. The mixture was incubated at 37° C. for 1 hr in 5% CO2 incubator with 95% humidity. The rest of the protocol was followed as described under C and D.

[2] = tested on: polymorphonuclear leucocytes; assay: DNA damage induced by hydrogen peroxide (H2O2) and protection by redistilled cow's urine distillate
Procedure: as §1
as §2, with “formula.” for “formula. [Krishnamurthi et al. (2003) & Bimboim & Jevcak (1981)].”
as §3, §4, §5

[3] = tested on: polymorphonuclear leucocytes; assay: DNA damage induced by manganese dioxide (MnO2) and protection by redistilled cow's urine distillate; conditions: Table 4; MnO2 20 μl alone (positive control)
Procedure: as §1, §2, §3, §4, §5

[4] = Table 3, H2O2 alone (positive control)
[5] = Table 5, H2O2 10 μl alone (positive control)
[6] = Table 6, H2O2 10 μl alone (positive control)

## Cc1c2oc3c(C)ccc(C(=O)N[C@@H]4C(=O)N[C@H](C(C)C)C(=O)N5CCC[C@H]5C(=O)N(C)CC(=O)N(C)[C@@H](C(C)C)C(=O)O[C@@H]4C)c3nc-2c(C(=O)N[C@@H]2C(=O)N[C@H](C(C)C)C(=O)N3CCC[C@H]3C(=O)N(C)CC(=O)N(C)[C@@H](C(C)C)C(=O)O[C@@H]2C)c(N)c1=O [Actinomycin D] (I: T[dV]P[Sar][NMeV] / II: T[dV]P[Sar][NMeV]; ester I:1-I:C, II:1-II:C; linker I:N-II:N via Actinocin(9to1))
[1]
  Mean, percentage of double stranded DNA remaining: 38 percentage
  Set I, percentage of double stranded DNA remaining: 40 percentage
  Set II, percentage of double stranded DNA remaining: 38 percentage
  Set III, percentage of double stranded DNA remaining: 44 percentage
  Set IV, percentage of double stranded DNA remaining: 28 percentage
  Set V, percentage of double stranded DNA remaining: 39 percentage

## OO [Hydrogen Peroxide (H2O2), Hydrogen Peroxide]
[2]; [4]
  Mean, percentage of double stranded DNA remaining: 31 percentage
  Set I, percentage of double stranded DNA remaining: 20 percentage
  Set II, percentage of double stranded DNA remaining: 29 percentage
  Set III, percentage of double stranded DNA remaining: 24 percentage
  Set IV, percentage of double stranded DNA remaining: 43 percentage
  Set V, percentage of double stranded DNA remaining: 38 percentage
[2]; [5]
  Mean, percentage of double stranded DNA remaining: 26 percentage
  Set I, percentage of double stranded DNA remaining: 24 percentage
  Set II, percentage of double stranded DNA remaining: 24 percentage
  Set III, percentage of double stranded DNA remaining: 24 percentage
  Set IV, percentage of double stranded DNA remaining: 33 percentage
  Set V, percentage of double stranded DNA remaining: 24 percentage
[2]; [6]
  Mean, percentage of double stranded DNA remaining: 26 percentage
  Set I, percentage of double stranded DNA remaining: 24 percentage
  Set II, percentage of double stranded DNA remaining: 24 percentage
  Set III, percentage of double stranded DNA remaining: 24 percentage
  Set IV, percentage of double stranded DNA remaining: 33 percentage
  Set V, percentage of double stranded DNA remaining: 24 percentage

## [O]=[Mn]=[O] [Manganese dioxide (MnO2), Manganese dioxide]
[3]
  Mean, percentage of double stranded DNA remaining: 21 percentage
  Set I, percentage of double stranded DNA remaining: 22 percentage
  Set II, percentage of double stranded DNA remaining: 30 percentage
  Set III, percentage of double stranded DNA remaining: 22 percentage
  Set IV, percentage of double stranded DNA remaining: 15 percentage
  Set V, percentage of double stranded DNA remaining: 16 percentage

From patent US7718360B2, “Composition (RCUD) for protecting and/or repairing DNA from oxidative damages and a method thereof” (Council of Scientific & Industrial Research, priority 2003, dated 2010)
